Test results taken from US12622881B2, “Water-soluble topical ophthalmic preparation containing lutein and production method thereof” (Omisan Farmaceutici S.R.L., priority 2021, dated 2026).

Assay: Preliminary tests: lutein added to an aqueous solution under stirring
Assay type: physicochemical
Conditions: even under strong and prolonged stirring
Excerpt: As noted, lutein, being a lipophilic molecule, is insoluble in water.

CC1=C[C@H](O)CC(C)(C)C1/C=C/C(C)=C/C=C/C(C)=C/C=C/C=C(C)/C=C/C=C(C)/C=C/C1=C(C)C[C@@H](O)CC1(C)C (stereo partly drawn) [lutein, β, ε-caroten-3,3′-diol]
behaviour of lutein in aqueous solution (solubility): for the most part deposits rapidly on the bottom
